In patent US20110071158A1, “NEW COMPOUNDS” (BOEHRINGER INGELHEIM INTERNATIONAL GMBH, priority 2009, published 2011):

target: T1, PTK2 enzyme (Homo sapiens, UniProt Q05397); assay: PTK2 enzyme test, Assay 1 (DELFIA, poly-Glu-Tyr substrate, antibody PT60); format: biochemical; details: Assay 1 (values without *); 1 h pre-incubation, 2% DMSO
T1 construct: purchased Invitrogen PV3832
Protocol: This test uses active PTK2 enzyme (Invitrogen Code PV3832) and poly-Glu-Tyr (4:1, Sigma P-0275) as the kinase substrate. The kinase activity is detected through the phosphorylation of the substrate in a DELFIA™ assay. The phosphorylated substrate is detected with the europium-labelled phosphotyrosine antibody PT60 (Perkin Elmer, No.: AD00400).
In order to determine concentration-activity curves with PTK2-inhibitors the compounds are serially diluted in 10% DMSO/H2O and 10 μL of each dilution are placed in each well of a 96-well microtitre plate (clear plate with a U-shaped base, Greiner No. 650101) (the inhibitors are tested in duplicates) and mixed with 10 μL/well of PTK2 kinase (0.01 μg/well). PTK2 kinase has been correspondingly diluted beforehand with kinase dilution buffer (20 mM TRIS/HCl pH 7.5, 0.1 mM EDTA, 0.1 mM EGTA, 0.286 mM sodium orthovanadate, 10% glycerol with the addition of freshly prepared BSA (fraction V, 1 mg/mL) and DTT (1 mM)). The test compound and the PTK2 kinase are pre-incubated for 1 h at RT and shaken at 500 revolutions per min. The reaction is started by the addition of 10 μL/well poly (Glu,Tyr) substrate (25 μg/well poly (Glu, Tyr), 0.05 μg/well biotinylated poly (Glu,Tyr) dissolved in 250 mM TRIS/HCl pH 7.5, 9 mM DTT)—the final concentration of DMSO is 2%. Then 20 μL of ATP Mix (30 mM TRIS/HCl pH 7.5, 0.02% Brij, 0.2 mM sodium orthovanadate, 10 mM magnesium acetate, 0.1 mM EGTA, 1× phosphatase inhibitor cocktail 1 (Sigma, No.: P2850), 50 μM ATP (Sigma, No.: A3377; 15 mM stock solution)) are added. After 1 h of kinase reaction (the plates are shaken at 500 rpm), the reaction is stopped by the addition of 12 μL/well 100 mM EDTA, pH 8.0 and shaken for a further 5 min at RT (500 rpm). 55 μL of the reaction mixture are transferred into a streptavidin plate (Strepta Well High Bind (transparent, 96-well) made by Roche, No.: 11989685001) and incubated for 1 h at RT (shaking at 500 rpm). Then the microtitre plate is washed three times with 200 μL/well D-PBS (Invitrogen, No. 14190). 100 μL of a solution containing DELFIA Eu-N1 Anti-Phosphotyrosine PT60 antibody (Perkin Elmer, No.: AD0040, diluted 1:2000 in DELFIA test buffer (Perkin Elmer, No.: 1244-111)) is then added and the mixture is incubated for 1 h at RT (shaking at 500 rpm). Then the plate is washed three times with 200 μL/well DELFIA washing buffer (Perkin Elmer, No.: 1244-114), 200 μL/well strengthening solution (Perkin Elmer, No.: 1244-105) are added and the mixture is incubated for 10 min at RT (shaking at 300 rpm).
The time-delayed europium fluorescence is then measured in a microtitre plate reader (VICTOR^3, Perkin Elmer). […] Wells that contain test buffer instead of enzyme are used as a control of the background kinase activity.
The IC50 values are determined from analyses of the concentration activity by iterative calculation with the aid of a sigmoid curve analysis algorithm (FIFTY, based on Graph PAD Prism Version 3.03) with a variable Hill coefficient.

T1 sequence (Q05397 whole entry): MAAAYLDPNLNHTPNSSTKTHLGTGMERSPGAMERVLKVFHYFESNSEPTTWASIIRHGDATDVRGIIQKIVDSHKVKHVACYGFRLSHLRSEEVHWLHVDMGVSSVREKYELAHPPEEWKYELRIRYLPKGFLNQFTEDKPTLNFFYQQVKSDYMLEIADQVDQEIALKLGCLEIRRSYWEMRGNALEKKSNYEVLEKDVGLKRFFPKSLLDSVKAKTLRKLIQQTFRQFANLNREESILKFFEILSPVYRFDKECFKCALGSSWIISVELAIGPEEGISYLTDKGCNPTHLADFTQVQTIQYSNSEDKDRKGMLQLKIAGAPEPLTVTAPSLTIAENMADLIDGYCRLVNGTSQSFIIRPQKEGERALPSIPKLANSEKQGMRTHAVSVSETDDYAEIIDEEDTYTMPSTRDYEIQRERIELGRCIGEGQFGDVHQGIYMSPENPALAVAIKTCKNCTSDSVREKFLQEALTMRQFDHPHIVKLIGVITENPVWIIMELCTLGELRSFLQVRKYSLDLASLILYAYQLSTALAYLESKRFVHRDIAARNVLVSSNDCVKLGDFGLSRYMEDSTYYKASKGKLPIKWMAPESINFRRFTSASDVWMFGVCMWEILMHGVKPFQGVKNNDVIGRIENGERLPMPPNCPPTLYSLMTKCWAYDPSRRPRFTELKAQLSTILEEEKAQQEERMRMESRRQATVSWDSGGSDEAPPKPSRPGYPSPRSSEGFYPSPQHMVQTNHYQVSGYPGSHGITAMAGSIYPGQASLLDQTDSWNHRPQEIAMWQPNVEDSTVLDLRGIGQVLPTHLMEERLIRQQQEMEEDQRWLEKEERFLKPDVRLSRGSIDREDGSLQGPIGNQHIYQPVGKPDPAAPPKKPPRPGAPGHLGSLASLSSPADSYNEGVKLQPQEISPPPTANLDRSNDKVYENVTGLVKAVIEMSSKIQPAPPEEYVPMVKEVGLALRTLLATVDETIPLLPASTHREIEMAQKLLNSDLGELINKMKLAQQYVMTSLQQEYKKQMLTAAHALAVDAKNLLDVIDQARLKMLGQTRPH

Row | Structure (SMILES) | IC50
1 | CCN1CCC(NC(=O)c2ccc(Nc3ncc(Br)c(N[C@@H]4CCCC[C@H]4NC(C)=O)n3)c(OC)c2)CC1 [Example I-51] | 1 nM
2 | COCCNC(=O)c1ccc(Nc2ncc(Br)c(N[C@@H]3CCCC[C@H]3NC(C)=O)n2)c(OC)c1 [Example I-52] | 2 nM
3 | COc1ccccc1Nc1ncc(Br)c(N[C@@H]2CCCC[C@H]2NC(C)=O)n1 [Example I-53] | 8 nM
4 | COc1ccc(Nc2ncc(Br)c(N[C@@H]3CCCC[C@H]3NC(C)=O)n2)c(OC)c1 [Example I-54] | 4 nM
5 | COc1cc(C(=O)NC2CCN(C3CC3)CC2)ccc1Nc1ncc(Br)c(N[C@@H]2CCCC[C@H]2NC(C)=O)n1 [Example I-55] | 2 nM
6 | CNC(=O)c1ccc(Nc2ncc(Cl)c(N[C@@H]3CCCC[C@H]3NC(C)=O)n2)c(OC)c1 [Example I-56] | 3 nM
7 | COc1cc(C(=O)N(C)C)ccc1Nc1ncc(Cl)c(N[C@@H]2CCCC[C@H]2NC(C)=O)n1 [Example I-57] | 26 nM
8 | CCNC(=O)c1ccc(Nc2ncc(Cl)c(N[C@@H]3CCCC[C@H]3NC(C)=O)n2)c(OC)c1 [Example I-58] | 3 nM
9 | COc1cc(C(=O)NCCN(C)C)ccc1Nc1ncc(Cl)c(N[C@@H]2CCCC[C@H]2NC(C)=O)n1 [Example I-59] | 1 nM
10 | COc1cc(C(=O)NC2CCOCC2)ccc1Nc1ncc(Cl)c(N[C@@H]2CCCC[C@H]2NC(C)=O)n1 [Example I-60] | 3 nM
11 | CCN1CCC(NC(=O)c2ccc(Nc3ncc(Cl)c(N[C@@H]4CCCC[C@H]4NC(C)=O)n3)c(OC)c2)CC1 [Example I-61] | 1 nM
12 | COc1cc(C(=O)NC2CCCN(C)C2)ccc1Nc1ncc(Cl)c(N[C@@H]2CCCC[C@H]2NC(C)=O)n1 (some centres unmarked) [Example I-62] | 1 nM
13 | COc1cc(C(=O)NC2CCN(C3CC3)CC2)ccc1Nc1ncc(Cl)c(N[C@@H]2CCCC[C@H]2NC(C)=O)n1 [Example I-63] | 3 nM
14 | COc1cc(C(=O)NC2CCN(C)CC2)ccc1Nc1ncc(Cl)c(N[C@@H]2CCCC[C@H]2NC(C)=O)n1 [Example I-64] | 1 nM
15 | COCCNC(=O)c1ccc(Nc2ncc(Cl)c(N[C@@H]3CCCC[C@H]3NC(C)=O)n2)c(OC)c1 [Example I-65] | 3 nM
16 | COc1cc(C(=O)NC2CCN(C)CC2)ccc1Nc1ncc(C(F)(F)F)c(N[C@@H]2CCCC[C@H]2NC(=O)CN2CCN(C)CC2)n1 [Example I-66] | 200 nM
17 | COc1ccc(Nc2ncc(Cl)c(N[C@@H]3CCCC[C@H]3NC(C)=O)n2)c(OC)c1 [Example I-67] | 10 nM
18 | COc1cc(C(=O)NC2CCN(C)CC2)ccc1Nc1ncc(C(F)(F)F)c(N[C@@H]2CCCC[C@H]2NC(=O)CN2CCOCC2)n1 [Example I-68] | 200 nM
19 | COc1ccc(Nc2ncc(C(F)(F)F)c(N[C@@H]3CCCC[C@H]3NC(=O)CC(C)C)n2)c(OC)c1 [Example I-70] | 440 nM
20 | CCN1CCC(NC(=O)c2ccc(Nc3ncc(C(F)(F)F)c(N[C@@H]4CCCC[C@H]4N(C)C(C)=O)n3)c(OC)c2)CC1 [Example I-71] | 10 nM
21 | COc1cc(C(=O)N(C)C)ccc1Nc1ncc(C(F)(F)F)c(N[C@@H]2CCCC[C@H]2N(C)C(C)=O)n1 [Example I-72] | 31 nM
22 | COc1cc(C(=O)NCCN(C)C)ccc1Nc1ncc(C(F)(F)F)c(N[C@@H]2CCCC[C@H]2N(C)C(C)=O)n1 [Example I-73] | 0.95 nM
23 | COc1cc(C(=O)NC2CCCN(C)C2)ccc1Nc1ncc(C(F)(F)F)c(N[C@@H]2CCCC[C@H]2N(C)C(C)=O)n1 (some centres unmarked) [Example I-74] | 1 nM
24 | CNCc1ccc(Nc2ncc(C(F)(F)F)c(N[C@@H]3CCCC[C@H]3NC(=O)C3CCC3)n2)c(OC)c1 [Example I-75] | 3 nM
25 | CNCc1ccc(Nc2ncc(C(F)(F)F)c(N[C@@H]3CCCC[C@H]3NC(C)=O)n2)c(OC)c1 [Example I-76] | 1 nM

Now from value to compound:

Row | IC50 | Structure (SMILES)
26 | 2 nM | CCC(=O)N[C@@H]1CCCC[C@H]1Nc1nc(Nc2ccc(CNC)cc2OC)ncc1C(F)(F)F [Example I-77]
27 | 4 nM | CNCc1ccc(Nc2ncc(C(F)(F)F)c(N[C@@H]3CCCC[C@H]3NC(=O)COC)n2)c(OC)c1 [Example I-78]
28 | 3 nM | CNCc1ccc(Nc2ncc(C(F)(F)F)c(N[C@@H]3CCCC[C@H]3NC(=O)C(C)C)n2)c(OC)c1 [Example I-79]
29 | 9 nM | COc1cc(C(=O)NC2CCN(C)CC2)ccc1Nc1ncc(C(F)(F)F)c(N[C@@H]2CCCC[C@H]2N(C)C(=O)C(C)C)n1 [Example I-80]
30 | 3 nM | CCC(=O)N(C)[C@@H]1CCCC[C@H]1Nc1nc(Nc2ccc(C(=O)NC3CCN(C)CC3)cc2OC)ncc1C(F)(F)F [Example I-81]
31 | 0.98 nM | COc1cc(C(=O)NC2CCN(C)CC2)ccc1Nc1ncc(C(F)(F)F)c(N[C@@H]2CCCC[C@H]2N(C)C(C)=O)n1 [Example I-82]
32 | 4 nM | COc1cc(C(=O)NC2CCN(C)CC2)ccc1Nc1ncc(C(F)(F)F)c(N[C@@H]2CCCC[C@H]2N(C)C(=O)C2CC2)n1 [Example I-83]
33 | 37 nM | COc1cc(C(=O)NC2CCN(C)CC2)ccc1Nc1ncc(C(F)(F)F)c(N[C@@H]2CCCC[C@H]2N(C)C(=O)C2CCC2)n1 [Example I-84]
34 | 2 nM | CNC(=O)c1cc(OC)c(Nc2ncc(C(F)(F)F)c(N[C@@H]3CCCC[C@H]3NC(C)=O)n2)cc1F [Example I-85]
35 | 7 nM | COc1cc(C(=O)NC2CCOCC2)c(F)cc1Nc1ncc(C(F)(F)F)c(N[C@@H]2CCCC[C@H]2NC(C)=O)n1 [Example I-86]
36 | 2 nM | CCN1CCC(NC(=O)c2cc(OC)c(Nc3ncc(C(F)(F)F)c(N[C@@H]4CCCC[C@H]4NC(C)=O)n3)cc2F)CC1 [Example I-87]
37 | 2 nM | COc1cc(C(=O)NC2CCCN(C)C2)c(F)cc1Nc1ncc(C(F)(F)F)c(N[C@@H]2CCCC[C@H]2NC(C)=O)n1 (some centres unmarked) [Example I-88]
38 | 9 nM | COc1cc(C(=O)O)ccc1Nc1ncc(C(F)(F)F)c(N[C@@H]2CCCC[C@H]2NC(C)=O)n1 [Example I-89]
39 | 7 nM | COC(=O)N(C)[C@@H]1CCCC[C@H]1Nc1nc(Nc2ccc(C(=O)NC3CCN(C)CC3)cc2OC)ncc1C(F)(F)F [Example I-95]
40 | 2 nM | COc1cc(C(=O)NC2CCN(C)CC2)ccc1Nc1ncc(C(F)(F)F)c(N[C@@H]2CCCC[C@H]2N2CCCC2=O)n1 [Example I-97]
41 | 3 nM | CCN(C(C)=O)[C@@H]1CCCC[C@H]1Nc1nc(Nc2ccc(C(=O)NC3CCN(C)CC3)cc2OC)ncc1C(F)(F)F [Example I-99]
42 | 2 nM | COc1cc(N2CCN(C)CC2)ccc1Nc1ncc(C(F)(F)F)c(N[C@@H]2CCCC[C@H]2N(C)C(C)=O)n1 [Example I-101]
43 | 7 nM | COc1cc(C(=O)NC2CCN(C)CC2)ccc1Nc1ncc(C(F)(F)F)c(N[C@@H]2CCCC[C@H]2N(CC2CC2)C(C)=O)n1 [Example I-103]
44 | 38 nM | COc1cc(C(=O)NC2CCN(C)CC2)ccc1Nc1ncc(C(F)(F)F)c(N[C@@H]2CCC[C@@H]2NC(C)=O)n1 [Example I-105]
45 | 1 nM | COc1cc(C(=O)N[C@H]2CCCN(C)C2)ccc1Nc1ncc(C(F)(F)F)c(N[C@@H]2CCCC[C@H]2N(C)C(C)=O)n1 [Example I-107]
46 | 1 nM | COc1cc(C(=O)NC2CCC(N(C)C)CC2)ccc1Nc1ncc(C(F)(F)F)c(N[C@@H]2CCCC[C@H]2N(C)C(C)=O)n1 (some centres unmarked) [Example I-108]
47 | 1 nM | COc1cc(C(=O)NC2CCN(C(C)C)CC2)ccc1Nc1ncc(C(F)(F)F)c(N[C@@H]2CCCC[C@H]2N(C)C(C)=O)n1 [Example I-109]
